Laboratory results from article PMC7576608, “Mechanisms of telomerase inhibition by oxidized and therapeutic dNTPs” (Nature Communications, 2020).
Where “and” joins values, the source holds several entries; their conditions need not be identical. Equal entries are not always repeated.

Target: telomerase (Homo sapiens, UniProt O14746)
Assay: Direct telomerase assay in the absence or presence of POT1-TPP1 (processivity R1/2)
Type: biochemical
Design: made in house; POT1: baculovirus-infected Sf9; TPP1-N: E. coli BL21(DE3) pLysS
Details: analog substituted for its natural dNTP, other dNTPs at cellular concentration
From the text: Next we tested whether the telomerase processivity factor POT1–TPP1 modulates modified dNTP inhibition of telomerase. POT1 binds to the telomeric ssDNA overhang, requiring the minimum sequence of 5′-[…]-3′[38]. Inclusion of POT1-binding partner TPP1, increases the binding affinity for telomeric DNA ten-fold compared to POT1 alone. POT1–TPP1 recruits telomerase to telomeres in vivo[39], and greatly increases telomerase repeat processivity. Therefore, we reasoned that POT1–TPP1 may overcome inhibition by the modified dNTPs and enhance telomerase processivity. We conducted telomerase extension reactions with radiolabeled primer in the presence of POT1–TPP1, and used a primer with a single mutation ([…]; underlined G to C mutation)[40] to ensure POT1–TPP1 is positioned at the 5′ portion of the primer (Fig. 5). This provides a homogenous substrate for telomerase extension.
For these reactions, we replaced the natural dNTP with the modified dNTP analog, while the other dNTPs remained at cellular relevant concentrations.
Direct telomerase assays were conducted in the absence or presence of 500 nM POT1 and 500 nM TPP1, as indicated, and 5 nM ^32P-end labeled primer ([…]) designed to position POT1 at the 10 nt primer 5′ end. Reactions contained cellular-concentration dNTPs (lanes 1 and 2), except when the natural dNTP was substituted with the oxidized dNTP a or therapeutic dNTP b analog (lanes 3–8), as indicated. […] Letters on the right indicate template base; P indicates unextended 18-mer primer. c Processivity was calculated on the basis of total products normalized to loading control. Images are representative of, and data are shown as mean ± s.d. from 3 to 5 independent experiments. Source data are provided as a Source Data file.
The reactions were started by the addition of 3 μl of immunopurified telomerase eluent, incubated at 37 °C for 1 h, then terminated with 2 μl of […] and heat inactivated at 65 °C for 20 min. An equal volume of loading buffer (94% formamide, 0.1× TBE, 0.1% bromophenol blue, 0.1% xylene cyanol) was added to the reaction eluent. The samples were heat denatured for 10 min at 100 °C and loaded onto a 14% denaturing acrylamide gel (7 M urea, 1× TBE) and electrophoresed for 90 min at constant 38 W. Samples were imaged using a Typhoon phosphorimager (GE Healthcare). Percent primer extension was calculated with ImageQuant TL 8.2 by measuring the intensity of each product band and dividing by the total radioactivity in the lane or total products, as indicated in the figure legends.
The processivity was calculated as described[40],[67]. Repeat processivity from the direct telomerase extension assays was calculated as R1/2 (equivalent to the half-time for decay in an exponential time course), which represents the median length of DNA product formed, expressed in terms of number of telomere repeats. First, the total volume counts for each product band extend by one or more telomere repeats were obtained using Image Quant TL. The volume counts were then normalized by dividing by the number of radiolabeled guanosines incorporated into the extended products based on the number of repeats added, termed corrected volume (corr vol). The “percent left behind” (%LB) was calculated for each product band by summing the counts for that product band and for every product band below (shorter products), divided by the total counts for the lane, and then multiplied by 100. The natural log of (100−%LB) was calculated and then plotted vs. repeat number for each product length. A linear regression line was fit to the data to determine the slope of the line.

[1] = 500 nM POT1 and 500 nM TPP1, Mean
[2] = 500 nM POT1 and 500 nM TPP1, n1-n3

Compound	Processivity R 1/2 [1]	Processivity R 1/2 (500 nM POT1 and 500 nM TPP1, n1-n3, listed as 8dA)	Processivity R 1/2 (Control (no POT1-TPP1), Mean)	Processivity R 1/2 (Control (no POT1-TPP1), n1-n3)	Processivity R 1/2 [2]	Processivity R 1/2 (500 nM POT1 and 500 nM TPP1, Mean, listed as 2dA)	Processivity R 1/2 (500 nM POT1 and 500 nM TPP1, n1-n3, listed as 2dA)	Processivity R 1/2 (Control (no POT1-TPP1), Mean, listed as 2dA)	Processivity R 1/2 (Control (no POT1-TPP1), n1-n3, listed as 2dA)
Nc1ncnc2c1[nH]c(=O)n2C1CC(O)C(COP(=O)(O)OP(=O)(O)OP(=O)(O)O)O1 (centres unmarked) [8-oxo-dATP]	1.31	1.15 and 1.30 and 1.47	0.00	0.00					
O=c1[nH]cnc2c1ncn2C1CCC(COP(=O)(O)OP(=O)(O)OP(=O)(O)O)O1 (centres unmarked) [ddITP]	0.00		0.00	0.00	0.00				
Nc1nc2c([nH]c(=O)n2C2CC(O)C(COP(=O)(O)OP(=O)(O)OP(=O)(O)O)O2)c(=O)[nH]1 (centres unmarked) [8-oxo-dGTP]	0.00		0.00	0.00	0.00				
Nc1nc2c(ncn2C2CC(O)C(COP(=O)(O)OP(=O)(O)OP(=O)(O)O)O2)c(=S)[nH]1 (centres unmarked) [6-thio-dGTP]	0.00		0.00	0.00	0.00				
Cc1cn([C@H]2C[C@H](N=[N+]=[N-])[C@@H](CO[P@](=O)(O)O[P@](=O)(O)OP(=O)(O)O)O2)c(=O)[nH]c1=O [AZT-TP]	0.00		0.00	0.00	0.00				
Nc1nc(O)nc2c1ncn2C1CC(O)C(COP(=O)(O)OP(=O)(O)OP(=O)(O)O)O1 (centres unmarked) [2-OH-dATP]	2.3		0.5			2.27	2.20 and 2.10 and 2.50	0.49	0.49 and 0.48 and 0.51
